Tests used:
alkaline phosphatase = test: Test Example 2: chemiluminescence intensity versus amount of alkaline phosphatase, limit of detection; assay type: biochemical; conditions: 42° C., 5 minutes incubation
Method: A solution of 1,2-dioxetane derivative (Examples 1 to 4) in dimethyl sulfoxide was added to 155 μL of the reaction liquid, and the mixture was kept at 42° C. for one hour. Twenty μL of a solution containing alkaline phosphatase was added, the mixture was incubated at 42° C. for 5 minutes, and then the chemiluminescence intensity was measured. The reaction liquid used herein was a 2: 1 mixture of a buffer solution (pH 9.6) that contains magnesium chloride and Sapphire-II™ Enhancer (from Thermo Fischer Scientific Inc.), and HISCL R4 reagent (from Sysmex Corporation). In Example 3, two types of sample were prepared, a sample (S(+)) with Sapphire-II™ Enhancer added thereto, and a sample […] without such additive.

[1] = Test Example 3: maximum emission wavelength by spectrofluorometer; assay type: physicochemical; conditions: after several hours under the conditions of Test Example 1; spectrofluorometer F-7000
Method: After a lapse of several hours under the conditions of Test Example 1, the samples were measured with use of a spectrofluorometer F-7000 (from Hitachi High-Tech Science Corporation), to find maximum emission wavelength.

[2] = buffer pH 9.6 with magnesium chloride and Sapphire-II Enhancer added (S (+)), HISCL R4 reagent

Row | Compound | LOD (zmol) (alkaline phosphatase; [2]) | Maximum emission wavelength (nm) [1] [nm] | LOD (zmol) (alkaline phosphatase; Sapphire-II Enhancer not added (S (−)))
1 | C#Cc1ccc(C2(OC)OOC23C2CC4CC3CC(Cl)(C4)C2)cc1OP(=O)(O)O (stereo not drawn) [Example 2] | 4 | 468 | –
2 | COC1(c2ccc(C#CC(=O)O)c(OP(=O)(O)O)c2)OOC12C1CC3CC2CC(Cl)(C3)C1 (stereo not drawn) [Example 3] | 7 | 475 | 1
3 | COC1(c2ccc(C#Cc3ccc(C(=O)O)cc3)c(OP(=O)(O)O)c2)OOC12C1CC3CC2CC(Cl)(C3)C1 (stereo not drawn) [Example 1] | 10 | 498 | –
4 | COC1(c2ccc(-c3ccc(C(=O)O)cc3)c(OP(=O)(O)O)c2)OOC12C1CC3CC2CC(Cl)(C3)C1 (stereo not drawn) [Example 4] | 100 | 493 | –
